Results reported in US10336746B1, “RAD51 inhibitors” (Cyteir Therapeutics, Inc., priority 2017, dated 2019).

Legend:
[1] = tested on: Daudi cell line (AID positive); assay: Primary screening cell killing assay, Daudi cell line (AID positive); type: cell-based; details: Homo sapiens, 168 h, cell death on Day 7, Cell-Titer Glo
Procedure: (§1) Primary screening was a phenotypic screen that utilized the synthetic lethal interaction between AID and RAD51 to identify compounds that were both potent and on target. AID expressing cells are dependent upon RAD51 for survival; inhibiting RAD51 in AID positive cells results in a cytotoxic effect.
The first step was to set up a cell killing assay in the Daudi cell line (AID positive). A 96 well u-bottom plate was prepared by writing the experiment number, plate number, date and initials in the top right corner of the plate lid. With a sterile 300 ml reservoir, and 25 ml serological pipette, evaporation buffer media was pipetted into reservoir in 25 ml increments. Using the liquid handler, 150 ul of evaporation buffer media was pipetted from reservoir into rows A and H, and Columns 1 and 12 of the 96 well u-bottom plate. Cell cultures were counted to obtain the density of cells per ml, and the culture viability. The cell density information was used to obtain 1,000,000 cells from culture using a 5 mL serological pipette into an epi tube. The cell density information from the culture was used to calculate the number of cells and volume of media needed for the assay to seed 1250 cells in 130 ul of media per available culture well in the 96 well u-bottom plate. Rows B through F were used for cells (50 wells in total), with row G left for an empty media control. The calculation was overestimated by 10 mL to account for the dead volume in the 300 ml reservoir. Once the media volume was calculated, the appropriate volume of media was pipetted in 25 mL increments into the 250 mL bottle using a 25 mL serological pipette. The 250 ml bottle was capped tightly, and placed into a 37° C. water bath for 2 minutes. While the culture media was warming, 10 mL of fresh media was pipetted from the 500 mL culture media bottle into a sterile 25 mL reservoir. Using the Eppendorf multichannel pipette, 130 ul of media was pipetted from the 25 mL reservoir into row G of the 96 well u-bottom plate. Once the 250 mL bottle of media was warmed, the volume of culture needed was pipetted into the bottle, and mixed gently with a 25 mL serological pipette as to not create bubbles, and then the contents of the bottle were pipetted into a new 300 mL reservoir. Using the liquid handler, 130 ul of culture was pipetted from the 300 mL reservoir into rows B through F of the 96 well u-bottom plate. Once the culture was added, the plate was placed into a 37° C. incubator until the compound master plate was prepared for use.
Two 96 well u-bottom plates were prepared by writing the master plate name in the upper right corner of the plate lid. Labeling one DMSO master and the other Media Master. The compounds of interest were obtained from the laboratory freezer, and placed into a 25 well storage box with a lid, and set the box aside. The compounds were vortexed after thawing but before use. Using an automatic multichannel pipette, 20 ul of 100% DMSO was pipetted into wells B3-B11 through G3-G11 of the DMSO master plate. For each compound on the master plate, 50 ul of the compound were pipetted in the appropriate well of row 2 (reference plate map to determine appropriate well). A serial dilution was prepared beginning by aspirating 20 ul from row 2 and mixing with row 3, repeating until row 11 was reached. Using the liquid handler, 194 ul of Daudi media was dispensed into wells B2-B11 through G2-G11 of the Media master plate. Using the liquid handler, 6 ul from the DMSO master plate was aspirated and dispensed into the media master plate, mixing 100 ul twice.
Compounds from master plate were then added to the culture plate. The culture plates were removed from the incubator, and set inside the biosafety cabinet. Using a liquid handler, 20 ul from wells B2 to B11 through G2 to G11 of master plate were aspirated, and dispensed into wells B2 to B11 through G2 to G11 of culture plate. This set was continued with each culture plate. […]

[2] = tested on: WI-38 cells (AID negative); assay: Primary screening cell killing assay repeated in WI-38 cells (AID negative); type: cell-based; details: Homo sapiens, 168 h, cell death on Day 7, Cell-Titer Glo
Procedure: as §1
Percent cell death and EC50 values were calculated by comparing the cell viability of the compound treated wells to the non-treated wells. Normalized RLU values were obtained by subtracting the media well values from each of the wells in the same column, and then dividing that value by the DMSO treated cells values. The percent kill was then calculated by subtracting the normalized RLU value from 1 and multiplying by 100. The average normalized percent kill value and standard error of the mean was then calculated. The kill values were then inputted into Prism with the corresponding standard errors. In Prism a non-linear regression line was plotted with the data points using a semi-log scale, and the EC50 value was calculated.

| SMILES | EC50 [1] | EC50 [2] |
| --- | --- | --- |
| CC(C)OC(=O)NC12CCC(c3ncc(-c4ccc(NC(=O)N[C@@H](C)c5ccccn5)cc4S(=O)(=O)NC(C)(C)C)s3)(CC1)CC2 [Ex. 15, isopropyl (S)-(4-(5-(2-(N-(tert-butyl)sulfamoyl)-4-(3-(1-(pyridin-2-yl)ethyl)ureido)phenyl)thiazol-2-yl)bicyclo[2.2.2]octan-1-yl)carbamate] | ≤ 100 nM | > 1000 nM |
| CC(C)OC(=O)NC12CCC(c3ncc(-c4ccc(NC(=O)N[C@H](C)c5ccccn5)cc4S(=O)(=O)NC(C)(C)C)s3)(CC1)CC2 [Ex. 16, isopropyl (R)-(4-(5-(2-(N-(tert-butyl)sulfamoyl)-4-(3-(1-(pyridin-2-yl)ethyl)ureido)phenyl)thiazol-2-yl)bicyclo[2.2.2]octan-1-yl)carbamate] | ≤ 100 nM | > 1000 nM |
| CC(C)OC(=O)NC12CCC(c3ncc(-c4ccc(NC(=O)NCc5ccccc5)cc4S(=O)(=O)NC(C)(C)C)s3)(CC1)CC2 [Ex. 18, isopropyl (4-(5-(4-(3-benzylureido)-2-(N-(tert-butyl)sulfamoyl)phenyl)thiazol-2-yl)bicyclo[2.2.2]octan-1-yl)carbamate] | ≤ 100 nM | > 1000 nM |
| CC(C)OC(=O)NC12CCC(c3ncc(-c4ccc(NC(=O)NCc5ccccn5)cc4S(=O)(=O)NC(C)(C)C)s3)(CC1)CC2 [Ex. 19, isopropyl (4-(5-(2-(N-(tert-butyl)sulfamoyl)-4-(3-(pyridin-2-ylmethyl)ureido)phenyl)thiazol-2-yl)bicyclo[2.2.2]octan-1-yl)carbamate] | ≤ 100 nM | > 1000 nM |
| CC(C)OC(=O)N[C@H]1CC[C@H](c2ncc(-c3ccc(NC(=O)N[C@H](C)c4ccccc4)cc3S(=O)(=O)NC(C)(C)C)s2)CC1 [Ex. 24] | ≤ 100 nM | > 1000 nM |
| CC(C)OC(=O)N[C@H]1CC[C@H](c2ncc(-c3ccc(NC(=O)N[C@@H](C)c4ccccc4)cc3S(=O)(=O)NC(C)(C)C)s2)CC1 [Ex. 26, isopropyl ((1S,4r)-4-(5-(2-(N-(tert-butyl)sulfamoyl)-4-(3-((S)-1-phenylethyl)ureido)phenyl)thiazol-2-yl)cyclohexyl)carbamate] | ≤ 100 nM | > 1000 nM |
| CC(C)OC(=O)N[C@H]1CC[C@H](c2ncc(-c3ccc(NC(=O)N[C@@H](C)c4ccccn4)cc3S(=O)(=O)NC(C)(C)C)s2)CC1 [Ex. 32, isopropyl ((1S,4r)-4-(5-(2-(N-(tert-butyl)sulfamoyl)-4-(3-((S)-1-(pyridin-2-yl)ethyl)ureido)phenyl)thiazol-2-yl)cyclohexyl)carbamate] | ≤ 100 nM | > 1000 nM |
| CC(C)OC(=O)NC1CCC(c2ncc(-c3ccc(NC(=O)OCc4ccccc4)cc3S(=O)(=O)NC(C)(C)C)s2)CC1 (stereo not shown) [Ex. 39, benzyl (3-(N-(tert-butyl)sulfamoyl)-4-(2-((1r,4r)-4-((isopropoxycarbonyl)amino)cyclohexyl)thiazol-5-yl)phenyl)carbamate] | ≤ 100 nM | > 1000 nM |
| CC(C)OC(=O)NC1CCC(c2ncc(-c3ccc(NC(=O)OCc4ccccc4F)cc3S(=O)(=O)NC(C)(C)C)s2)CC1 (stereo not shown) [Ex. 40, 2-fluorobenzyl (3-(N-(tert-butyl)sulfamoyl)-4-(2-((1r,4r)-4-((isopropoxycarbonyl)amino)cyclohexyl)thiazol-5-yl)phenyl)carbamate] | ≤ 100 nM | > 1000 nM |
| CC(C)OC(=O)NC1CCC(c2ncc(-c3ccc(NC(=O)O[C@@H](C)c4ccccc4)cc3S(=O)(=O)NC(C)(C)C)s2)CC1 (stereo partly drawn) [Ex. 41, (S)-1-phenylethyl (3-(N-(tert-butyl)sulfamoyl)-4-(2-((1r,4S)-4-((isopropoxycarbonyl)amino)cyclohexyl)thiazol-5-yl)phenyl)carbamate] | ≤ 100 nM | > 1000 nM |
| CC(C)OC(=O)NC1CCC(c2ncc(-c3ccc(NC(=O)OCc4ccccn4)cc3S(=O)(=O)NC(C)(C)C)s2)CC1 (stereo not shown) [Ex. 42, pyridin-2-ylmethyl (3-(N-(tert-butyl)sulfamoyl)-4-(2-((1r,4r)-4-((isopropoxycarbonyl)amino)cyclohexyl)thiazol-5-yl)phenyl)carbamate] | ≤ 100 nM | > 1000 nM |
| CC(C)OC(=O)NC1CCC(c2ncc(-c3ccc(NC(=O)O[C@H](C)c4ccccc4)cc3S(=O)(=O)NC(C)(C)C)s2)CC1 (stereo partly drawn) [Ex. 43, (R)-1-phenylethyl (3-(N-(tert-butyl)sulfamoyl)-4-(2-((1r,4R)-4-((isopropoxycarbonyl)amino)cyclohexyl)thiazol-5-yl)phenyl)carbamate] | 100 to 1000 nM | > 1000 nM |
| CC(C)OC(=O)Nc1ccc(-c2cnc(N3CC(NC(=O)OC(C)C)C3)s2)c(S(=O)(=O)NC(C)(C)C)c1 [Ex. 46, isopropyl N-[3-(tert-butylsulfamoyl)-4-[2-[3-(isopropoxycarbonylamino)azetidin-1-yl]thiazol-5-yl]phenyl]carbamate] | > 1000 nM | > 1000 nM |
| CC(C)(C)NS(=O)(=O)c1cc(NC(=O)OC2COC2)ccc1-c1cnc([C@H]2CC[C@H](NC(=O)OC3COC3)CC2)s1 [Ex. 49, trans-oxetan-3-yl N-[3-(tert-butylsulfamoyl)-4-[2-[4-(oxetan-3-yloxycarbonylamino)cyclohexyl]thiazol-5-yl]phenyl]carbamate] | 100 to 1000 nM | > 1000 nM |
| C[C@@H](NC(=O)Nc1ccc(-c2cnc(C3CCC(NC(=O)OC4COC4)CC3)s2)c(S(=O)(=O)NC(C)(C)C)c1)c1ccccc1F (stereo partly drawn) [Ex. 54, oxetan-3-yl ((1R,4r)-4-(5-(2-(N-(tert-butyl)sulfamoyl)-4-(3-((R)-1-(2-fluorophenyl)ethyl)ureido)phenyl)thiazol-2-yl)cyclohexyl)carbamate] | ≤ 100 nM | > 1000 nM |
| CC(C)NC(=O)OC12CCC(c3ncc(-c4ccc(NC(=O)NCc5ccccc5)cc4S(=O)(=O)NC(C)(C)C)s3)(CC1)CC2 [Ex. 61, [1-[5-[4-(benzylcarbamoylamino)-2-(tert-butylsulfamoyl)phenyl]thiazol-2-yl]-4-bicyclo[2.2.2]octanyl]N-isopropylcarbamate] | > 1000 nM | > 1000 nM |
| CC(C)NC(=O)OC12CCC(c3ncc(-c4ccc(NC(=O)NCc5ccccn5)cc4S(=O)(=O)NC(C)(C)C)s3)(CC1)CC2 [Ex. 62, 4-(5-(2-(N-(tert-butyl)sulfamoyl)-4-(3-(pyridin-2-ylmethyl)ureido)phenyl)thiazol-2-yl)bicyclo[2.2.2]octan-1-yl isopropylcarbamate] | > 1000 nM | > 1000 nM |
| CC(C)OC(=O)Nc1ccc(-c2cnc(C3CC(NC(=O)OC(C)C)C3)s2)c(S(=O)(=O)NC(C)(C)C)c1 (stereo not shown) [Ex. 65, isopropyl N-[3-(tert-butylsulfamoyl)-4-[2-[3-(isopropoxycarbonylamino)cyclobutyl]thiazol-5-yl]phenyl]carbamate] | 100 to 1000 nM | > 1000 nM |
| CC(C)OC(=O)N[C@H]1CC[C@H](c2ncc(-c3ccc(NC(=O)OCc4ccccc4F)cc3S(=O)(=O)NC(C)(C)C)s2)CC1 [Ex. 70, trans-isopropyl N-[4-[5-[2-(tert-butylsulfamoyl)-4-[(2-fluorophenyl)methoxycarbonylamino]phenyl]thiazol-2-yl]cyclohexyl]carbamate] | ≤ 100 nM | > 1000 nM |
| CC(C)OC(=O)N[C@H]1CC[C@H](c2ncc(-c3ccc(NC(=O)O[C@@H](C)c4ccccc4)cc3S(=O)(=O)NC(C)(C)C)s2)CC1 [Ex. 71, trans-[(1S)-1-phenylethyl] N-[3-(tert-butylsulfamoyl)-4-[2-[4-(isopropoxycarbonylamino)cyclohexyl]thiazol-5-yl]phenyl]carbamate] | ≤ 100 nM | > 1000 nM |
